Experimental data taken from PubChem BioAssay (NCI).
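1) Cells in 96-well plates. 2) Compound, 48 h, 5 concentrations. 3) Linear interpolation between surrounding doses. 4) Unreached endpoint = highest concentration. TGI: concentration producing complete growth inhibition.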

These compounds were tested on RPMI-8226 leukemia (assay: NCI tumour cell line growth inhibition, 48 h).

Going from `COc1ccc2c(c1)[n+]([O-])c(-c1ccc(OC)c(OC)c1)c(N)[n+]2[O-]` to `COc1cc([C@@H]2c3cc4c(cc3[C@@H](OC(=O)c3ccc(N)cc3)C3COC(=O)[C@@H]32)OCO4)cc(OC)c1O` (stereo partly drawn), the TGI falls from greater than 100 µM to 58 µM.

First: CC(C)CC(NC(=O)OC(C)(C)C)C(=O)Nc1ccc(Nc2nc(F)nc(-c3c4ccccc4c4n3CCS4)n2)cc1 (stereo not drawn)
Second: CC(=O)NNc1nc(C)c(C(=O)/C=C/c2ccccc2Cl)s1
The TGI of the first is lower: 58.6 µM for the first, greater than 100 µM for the second.

`O=C(O/C(=C(/N=Nc1ccccc1)c1ccccc1)c1ccccc1)c1ccccc1` was tested, and the TGI was greater than 100 µM.

These compounds were tested on COLO 205 colon (assay: NCI tumour cell line growth inhibition, 48 h).

Going from `CCC12CCCN(Cc3ccccc3)C1c1c(n(C)c3ccccc13)C(C(=O)OC)C2` (stereo not drawn) to `CC(C)CC(NC(=O)OC(C)(C)C)C(=O)Nc1ccc(Nc2nc(F)nc(-c3c4ccccc4c4n3CCS4)n2)cc1` (stereo not drawn), the TGI falls from greater than 239 µM to 33.3 µM.

First: COc1ccc2c(c1)[n+]([O-])c(-c1ccc(OC)c(OC)c1)c(N)[n+]2[O-]
Second: COc1cc([C@@H]2c3cc4c(cc3[C@@H](OC(=O)c3ccc(N)cc3)C3COC(=O)[C@@H]32)OCO4)cc(OC)c1O (stereo partly drawn)
The TGI of the first is 1.8-fold higher: 34.5 µM for the first, 18.9 µM for the second.

`Cc1ccc(SSc2ccc(C)cc2C(=O)O)c(C(=O)O)c1` and `CC(=O)NNc1nc(C)c(C(=O)/C=C/c2ccccc2Cl)s1` cannot be ordered by TGI: greater than 100 µM for the first, greater than 100 µM for the second.

`O=C1NC2(CCCCCC2)C2CCCCCCC12O` (stereo not drawn) gave a TGI greater than 100 µM.

These compounds were tested on HCT-116 colon (assay: NCI tumour cell line growth inhibition, 48 h).

First: CCC12CCCN(Cc3ccccc3)C1c1c(n(C)c3ccccc13)C(C(=O)OC)C2 (stereo not drawn)
Second: CC(C)CC(NC(=O)OC(C)(C)C)C(=O)Nc1ccc(Nc2nc(F)nc(-c3c4ccccc4c4n3CCS4)n2)cc1 (stereo not drawn)
The TGI of the first is higher: greater than 239 µM for the first, 46 µM for the second.

`O=C(O/C(=C(/N=Nc1ccccc1)c1ccccc1)c1ccccc1)c1ccccc1` and `COc1cc([C@@H]2c3cc4c(cc3[C@@H](OC(=O)c3ccc(N)cc3)C3COC(=O)[C@@H]32)OCO4)cc(OC)c1O` (stereo partly drawn) cannot be ordered by TGI: greater than 100 µM for the first, greater than 95 µM for the second.

Work on `O=C1NC2(CCCCCC2)C2CCCCCCC12O` (stereo not drawn) yielded a TGI greater than 100 µM.

These compounds were tested on HCT-15 colon (assay: NCI tumour cell line growth inhibition, 48 h).

First: CCC12CCCN(Cc3ccccc3)C1c1c(n(C)c3ccccc13)C(C(=O)OC)C2 (stereo not drawn)
Second: CC(C)CC(NC(=O)OC(C)(C)C)C(=O)Nc1ccc(Nc2nc(F)nc(-c3c4ccccc4c4n3CCS4)n2)cc1 (stereo not drawn)
The TGI of the first is higher: greater than 239 µM for the first, 30.3 µM for the second.

Going from `COc1ccc2c(c1)[n+]([O-])c(-c1ccc(OC)c(OC)c1)c(N)[n+]2[O-]` to `COc1cc([C@@H]2c3cc4c(cc3[C@@H](OC(=O)c3ccc(N)cc3)C3COC(=O)[C@@H]32)OCO4)cc(OC)c1O` (stereo partly drawn), the TGI falls from greater than 100 µM to 56.1 µM.

`O=C(O/C(=C(/N=Nc1ccccc1)c1ccccc1)c1ccccc1)c1ccccc1` and `CC(=O)NNc1nc(C)c(C(=O)/C=C/c2ccccc2Cl)s1` cannot be ordered by TGI: greater than 100 µM for the first, greater than 100 µM for the second.

`O=C1NC2(CCCCCC2)C2CCCCCCC12O` (stereo not drawn) gave a TGI greater than 100 µM.

What follows are compounds tested on HOP-62 NSCLC (assay: NCI tumour cell line growth inhibition, 48 h).

Going from `CCC12CCCN(Cc3ccccc3)C1c1c(n(C)c3ccccc13)C(C(=O)OC)C2` (stereo not drawn) to `CC(C)CC(NC(=O)OC(C)(C)C)C(=O)Nc1ccc(Nc2nc(F)nc(-c3c4ccccc4c4n3CCS4)n2)cc1` (stereo not drawn), the TGI falls from greater than 239 µM to 37.2 µM.

First: COc1ccc2c(c1)[n+]([O-])c(-c1ccc(OC)c(OC)c1)c(N)[n+]2[O-]
Second: COc1cc([C@@H]2c3cc4c(cc3[C@@H](OC(=O)c3ccc(N)cc3)C3COC(=O)[C@@H]32)OCO4)cc(OC)c1O (stereo partly drawn)
The TGI of the first is higher: greater than 100 µM for the first, 26.9 µM for the second.

`Cc1ccc(SSc2ccc(C)cc2C(=O)O)c(C(=O)O)c1` and `CC(=O)NNc1nc(C)c(C(=O)/C=C/c2ccccc2Cl)s1` cannot be ordered by TGI: greater than 100 µM for the first, greater than 100 µM for the second.

With `O=C1NC2(CCCCCC2)C2CCCCCCC12O` (stereo not drawn) the TGI was greater than 100 µM.

These compounds were tested on ACHN renal (assay: NCI tumour cell line growth inhibition, 48 h).

Compared with `CCC12CCCN(Cc3ccccc3)C1c1c(n(C)c3ccccc13)C(C(=O)OC)C2` (stereo not drawn), `CC(C)CC(NC(=O)OC(C)(C)C)C(=O)Nc1ccc(Nc2nc(F)nc(-c3c4ccccc4c4n3CCS4)n2)cc1` (stereo not drawn) is lower in TGI: greater than 239 µM for the first, 39.2 µM for the second.

First: COc1ccc2c(c1)[n+]([O-])c(-c1ccc(OC)c(OC)c1)c(N)[n+]2[O-]
Second: COc1cc([C@@H]2c3cc4c(cc3[C@@H](OC(=O)c3ccc(N)cc3)C3COC(=O)[C@@H]32)OCO4)cc(OC)c1O (stereo partly drawn)
The TGI of the first is higher: greater than 100 µM for the first, 28.2 µM for the second.

`O=C(O/C(=C(/N=Nc1ccccc1)c1ccccc1)c1ccccc1)c1ccccc1` and `Cc1ccc(SSc2ccc(C)cc2C(=O)O)c(C(=O)O)c1` cannot be ordered by TGI: greater than 100 µM for the first, greater than 100 µM for the second.

`CC(=O)NNc1nc(C)c(C(=O)/C=C/c2ccccc2Cl)s1` and `O=C1NC2(CCCCCC2)C2CCCCCCC12O` (stereo not drawn) cannot be ordered by TGI: greater than 100 µM for the first, greater than 100 µM for the second.

What follows are compounds tested on RXF 393 renal (assay: NCI tumour cell line growth inhibition, 48 h).

Going from `CCC12CCCN(Cc3ccccc3)C1c1c(n(C)c3ccccc13)C(C(=O)OC)C2` (stereo not drawn) to `CC(C)CC(NC(=O)OC(C)(C)C)C(=O)Nc1ccc(Nc2nc(F)nc(-c3c4ccccc4c4n3CCS4)n2)cc1` (stereo not drawn), the TGI falls from greater than 239 µM to 62.1 µM.

`O=C(O/C(=C(/N=Nc1ccccc1)c1ccccc1)c1ccccc1)c1ccccc1` and `Cc1ccc(SSc2ccc(C)cc2C(=O)O)c(C(=O)O)c1` cannot be ordered by TGI: greater than 100 µM for the first, greater than 100 µM for the second.

`COc1cc([C@@H]2c3cc4c(cc3[C@@H](OC(=O)c3ccc(N)cc3)C3COC(=O)[C@@H]32)OCO4)cc(OC)c1O` (stereo partly drawn) and `CC(=O)NNc1nc(C)c(C(=O)/C=C/c2ccccc2Cl)s1` cannot be ordered by TGI: greater than 95 µM for the first, greater than 100 µM for the second.

In the case of `O=C1NC2(CCCCCC2)C2CCCCCCC12O` (stereo not drawn), the TGI is reported as greater than 100 µM.

The compounds below were run on SNB-75 CNS (assay: NCI tumour cell line growth inhibition, 48 h).

Going from `COc1ccc2c(c1)[n+]([O-])c(-c1ccc(OC)c(OC)c1)c(N)[n+]2[O-]` to `COc1cc([C@@H]2c3cc4c(cc3[C@@H](OC(=O)c3ccc(N)cc3)C3COC(=O)[C@@H]32)OCO4)cc(OC)c1O` (stereo partly drawn), the TGI falls from greater than 100 µM to 36.4 µM.

Going from `CC(C)CC(NC(=O)OC(C)(C)C)C(=O)Nc1ccc(Nc2nc(F)nc(-c3c4ccccc4c4n3CCS4)n2)cc1` (stereo not drawn) to `CC(=O)NNc1nc(C)c(C(=O)/C=C/c2ccccc2Cl)s1`, the TGI rises from 38.2 µM to greater than 100 µM.

`O=C(O/C(=C(/N=Nc1ccccc1)c1ccccc1)c1ccccc1)c1ccccc1` and `O=C1NC2(CCCCCC2)C2CCCCCCC12O` (stereo not drawn) cannot be ordered by TGI: greater than 100 µM for the first, greater than 100 µM for the second.

Each compound was assayed on K-562 leukemia (assay: NCI tumour cell line growth inhibition, 48 h).

Work on `CCC12CCCN(Cc3ccccc3)C1c1c(n(C)c3ccccc13)C(C(=O)OC)C2` (stereo not drawn) yielded a TGI greater than 239 µM.
